The values that follow come from patent US5187157A, “Peptide boronic acid inhibitors of trypsin-like proteases” (Du Pont Merck Pharmaceutical Company, priority 1988, dated 1993).

One assay concerns the target T1, Human thrombin (Homo sapiens, UniProt P00734).
T1 construct: purchased R.Q.P. Laboratories, South Bend, IN Lot HT102
In words: Inhibition of Thrombin (Esterase Activity). It counts as biochemical. The settings on record: for Percent Activity: activity remaining 10 to 20 min after initiation. The protocol: (§1) In the Examples which follow, the hydrolytic activity of each enzyme is measured in both the presence and absence of inhibitor and the percent enzyme activity determined. […] A steady state is reached fairly rapidly and nears completion within 5 min. Activity is evaluated between 10-20 min after the components are mixed to insure that reaction components are at equilibrium. The lowest concentration of inhibitor tested is determined by the estimated concentration of enzyme. […] The maintenance of pseudo-first-order reaction conditions and the sensitivity of the respective assays sets the lowest limit level of inhibitor tested at 10 nM for kallikrein inhibitors and 5 nM for thrombin inhibitors.
A stock solution of thrombin was prepared in 0.010M PIPES Buffer, pH 6.0, containing 0.75 M sodium chloride. […] The initial concentration of substrate was 0.10 mM and the concentration of thrombin was 1.0 nM (based on weight).

The target in the next assay is T2, Human plasma kallikrein (Homo sapiens, UniProt P03952).
T2 construct: purchased Protogen AG (Switzerland)
T2 sequence (P03952 391-638 limits assumed): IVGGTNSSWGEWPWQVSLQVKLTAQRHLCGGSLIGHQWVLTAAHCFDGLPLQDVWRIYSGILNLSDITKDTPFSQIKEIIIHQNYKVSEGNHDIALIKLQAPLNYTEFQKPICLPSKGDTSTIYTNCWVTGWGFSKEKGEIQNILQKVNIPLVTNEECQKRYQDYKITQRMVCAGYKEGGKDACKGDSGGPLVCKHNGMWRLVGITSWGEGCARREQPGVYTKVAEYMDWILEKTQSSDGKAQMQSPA
T2 sequence (P03952 20-390 partner limits assumed): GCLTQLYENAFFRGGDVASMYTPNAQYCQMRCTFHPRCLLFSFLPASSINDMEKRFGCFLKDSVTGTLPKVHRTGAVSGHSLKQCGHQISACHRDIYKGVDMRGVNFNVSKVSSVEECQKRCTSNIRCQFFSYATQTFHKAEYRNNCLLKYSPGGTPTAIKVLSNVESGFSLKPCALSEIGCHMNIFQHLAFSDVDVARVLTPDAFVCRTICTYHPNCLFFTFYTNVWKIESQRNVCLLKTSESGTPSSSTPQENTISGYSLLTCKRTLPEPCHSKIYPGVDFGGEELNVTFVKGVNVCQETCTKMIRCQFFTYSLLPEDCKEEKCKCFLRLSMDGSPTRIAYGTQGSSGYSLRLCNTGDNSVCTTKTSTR
In words: Inhibition of Human Plasma Kallikrein. The settings on record: for Percent Activity: activity remaining 10 to 20 min after initiation. The class given is biochemical. How it is done:
as §1
Human plasma kallikrein was obtained from Protogen AG (Switzerland). The specific activity as described by the supplier is 15 units per mg. A unit is defined as the quantity of enzyme required to hydrolyze 1 μmole of substrate, H-(D)Pro-Phe-Arg-p-nitroanilide (Kabi S2302), per min at a substrate concentration of 0.50 mM at 25° in 50 mM potassium phosphate buffer, pH 8.0.

Residues, ends and D or L forms follow the SMILES beside them. *: point of attachment. X1 = CC1(C)C2CC3OB(C(CCCNC(=N)N)N*)OC3(C)C1C2; X2 = CC1(C)C2CC3OB(C(CCCSC(=N)N)N*)OC3(C)C1C2; X3 = CC1(C)C2CC3OB(C(CCCN)N*)OC3(C)C1C2; Boc = CC(C)(C)OC(=O)*

On to `Br.CC(=O)NC(C)C(=O)NC(CCCCNC(=O)OC(C)(C)C)C(=O)NC(CCCSC(=N)N)B1OC2CC3CC(C3(C)C)C2(C)O1` (stereo not shown) [Ac--Ala--Lys(Boc)--boroIrg--C10 H16.HBr, Ac-Ala-Lys(Boc)-boroIrg-C10 H16.HBr], for which the figures for the “Percent Activity” value at Human thrombin (inhibitor 100 nM) and at Human plasma kallikrein (inhibitor 50 nM) were 55% and 1.4%, respectively. Take `Br.Br.CC1(C)C2CC3OB(C(CCCSC(=N)N)NC(=O)C(Cc4ccccc4)NC(=O)C(N)Cc4ccccc4)OC3(C)C1C2` (stereo not drawn) [H--(D)Phe--Phe-- boroIrg--C10 H16.2HBr, H-(D)Phe-Phe-boroIrg-C10 H16.2HBr]: the “Percent Activity” value at Human thrombin (inhibitor 10 nM) turned out to be 49%. Turning to `Br.Br.CC(N)C(=O)NC(Cc1ccccc1)C(=O)NC(CCCCSC(=N)N)B1OC(C)(C)C(C)(C)O1` (stereo not drawn) [H-Ala-Phe-(D,L)boroHomoIrg-C6 H12.2HBr], the “Percent Activity” value at Human thrombin (inhibitor 10000 nM) was 47%. As to `Br.CC1(C)C2CC3OB(C(CCCSC(=N)N)NC(=O)CNC(=O)CNC(=O)C(Cc4ccccc4)NC(=O)OCc4ccccc4)OC3(C)C1C2` (stereo not drawn) [Z--Phe--Gly--Gly--boroIrg--C10 H16.HBr, Z-PheGly-Gly-boroIrg-C10 H16.HBr], the “Percent Activity” value at Human thrombin (inhibitor 100 nM) worked out at 46%. On to “Bz-Glu(OBu)-Gly-boroIrg-C10 H16.HBr [Bz--Glu(OBu--Gly--boroIrg--C10 H16.HBr]”, for which the “Percent Activity” value at Human thrombin (inhibitor 10 nM) stood at 59%. As to “Boc-Ala-Phe-(D,L)boroIrg-C6 H12.HBr [Boc--Ala--Phe--(D,L)boroIrg--C6 H12.HBr]”, the entries for the “Percent Activity” value at Human thrombin (inhibitor 1000 nM) and on Human plasma kallikrein (inhibitor 10 nM) were 28% and 15%, respectively. Regarding `CCCCOC(=O)CC[C@H](NC(=O)c1ccccc1)C(=O)NCC(=O)NC(CCCNC(=N)N)B1OC2CC3CC(C3(C)C)C2(C)O1.O=S(=O)(O)c1ccccc1` (stereo partly shown) [Bz--Glu(OBu)--Gly--boroArg--C10 H16.BSA, Bz-Glu(OBu)-Gly-boroArg-C10 H16.benzene sulfonic acid], the “Percent Activity” value on Human thrombin (inhibitor 10 nM) is 52%; on Human plasma kallikrein (inhibitor 50 nM), 11%. Take `CC(NC(=O)OC(C)(C)C)C(=O)NC(Cc1ccccc1)C(=O)NC(CCCCN)B1OC(C)(C)C(C)(C)O1.Cl` (stereo not drawn) [Boc--Ala--Phe--(D,L)boroLys--C6 H12.HCl, Boc-Ala-Phe-(D,L)boroLys-C6 H12.HCl]: the “Percent Activity” value came out at 46% on Human thrombin (inhibitor 10000 nM) and 17% on Human plasma kallikrein (inhibitor 1000 nM).

In the case of “Bz-Pro-Phe-boroArg-F.hydrogen chloride [Bz--Pro--Phe--boroArg--F]”, the “Percent Activity” value at Human thrombin (inhibitor 1000 nM) and on Human plasma kallikrein (inhibitor 10 nM) was 18% in each case. Regarding `Br.CC(NC(=O)OC(C)(C)C)C(=O)NC(Cc1ccccc1)C(=O)NC(CCCCSC(=N)N)B1OC(C)(C)C(C)(C)O1` (stereo not drawn) [Boc-Ala-Phe-(D,L)boroHomoIrg-C6 H12.HBr], the “Percent Activity” value at Human thrombin (inhibitor 10000 nM) was found to be 32%; on Human plasma kallikrein (inhibitor 100 nM) it was 38%. As for `CC(C)CC(NC(=O)C(NC(=O)OC(C)(C)C)C(C)C)C(=O)NC(CCCCN)B1OC(C)(C)C(C)(C)O1.Cl` (stereo not drawn) [Boc--(D)Val--Leu--boroLys--C6 H12.HCl, Boc-(D)Val-Leu-boroLys-C6 H12.benzene sulfonic acid], the “Percent Activity” value on Human thrombin (inhibitor 1000 nM) was determined as 21%. For `CC1(C)C2CC3OB(C(CCCNC(=N)N)NC(=O)C(Cc4ccccc4)NC(=O)C(N)Cc4ccccc4)OC3(C)C1C2.Cl.Cl` (stereo not drawn) [H--(D)Phe--Phe--boroArg--C10 H16.2HCl, H-(D)Phe-Phe-boroArg-C10 H16.2HCl], the “Percent Activity” value at Human thrombin (inhibitor 10 nM) is reported as 10%. On Human plasma kallikrein (inhibitor 10 nM), the inhibits kallikrein entry is given as “greater than 95%” and the “Percent Activity” value came out at 2.6%. As to `CC(C)CC(NC(=O)CNC(=O)C(CC(C)C)NC(=O)OC(C)(C)C)C(=O)NC(C)C(=O)NC(CCCN)B1OC2CC3CC(C3(C)C)C2(C)O1.O=S(=O)(O)c1ccccc1` (stereo not drawn) [Boc-Leu-Gly-Leu-Ala-boroOrn-C10 H16] (Boc-LGLA-X3; configuration not given here), at Human thrombin (inhibitor 1000 nM), the “Percent Activity” value is given as 24%. `Br.Br.CC(N)C(=O)NC(Cc1ccccc1)C(=O)NC(CCCSC(=N)N)B1OC(C)(C)C(C)(C)O1` (stereo not drawn) [H--Ala--Phe--(D,L)boroIrg--C6 H12.2HBr, H-Ala-Phe-(D,L)boroIrg-C6 H12.2HBr]: the “Percent Activity” value on Human thrombin (inhibitor 10000 nM) was 23%. Regarding “Ac-Ala-Lys(Boc)-boroArg-C10 H16.benzene sulfonic acid [Ac--Ala--Lys(Boc)--boroArg--C10 H16.BSA]”, the figures for the “Percent Activity” value on Human thrombin (inhibitor 100 nM) and at Human plasma kallikrein (inhibitor 10 nM) were 18% and 34%, respectively. `CC(C)(C)OC(=O)NC(Cc1ccccc1)C(=O)N1CCCC1C(=O)NC(CCCN)B1OC2CC3CC(C3(C)C)C2(C)O1.O=S(=O)(O)c1ccccc1` (stereo not drawn) [Boc--(D)Phe--Pro--boroOrn--C10 H16.BSA, Boc-(D)Phe-Pro-NH-CH[(CH2)3 NH2 ]BO2 -C10 H16.benzene sulfonic acid]: the “Percent Activity” value on Human thrombin (inhibitor 100 nM) is listed as 18%; at Human plasma kallikrein (inhibitor 10000 nM), 100%.

For the compound `Br.Br.CC(C)CC(N)C(=O)NCC(=O)NC(CC(C)C)C(=O)NC(C)C(=O)NC(CCCSC(=N)N)B1OC2CC3CC(C3(C)C)C2(C)O1` (stereo not drawn) [H-Leu-Gly-Leu-Ala-boroIrg-C10 H16.2HBr] (H-LGLA-X2; configuration not given here), on Human thrombin (inhibitor 10 nM), the “Percent Activity” value is 37%. Regarding `Br.Br.CC(=O)NC(C)C(=O)NC(CCCCN)C(=O)NC(CCCSC(=N)N)B1OC2CC3CC(C3(C)C)C2(C)O1` (stereo not drawn) [Ac--Ala--Lys--boroIrg--C10 H16.2HBr, Ac-Ala-Lys-boroIrg-C10 H16.2HBr], the “Percent Activity” value at Human thrombin (inhibitor 1000 nM) was 68%. Take `CC(=O)NC(C)C(=O)NC(CCCCN)C(=O)NC(CCCNC(=N)N)B1OC2CC3CC(C3(C)C)C2(C)O1.Cl.Cl` (stereo not drawn) [Ac--Ala--Lys--boroArg--C10 H16.2HCl, Ac-Ala-Lys-boroArg-C10 H16.2HCl]: the “Percent Activity” value on Human thrombin (inhibitor 1000 nM) is 45%; on Human plasma kallikrein (inhibitor 50 nM), 39%. For `CC(=O)NC(Cc1ccccc1)C(=O)N1CCCC1C(=O)NC(CCCNC(=N)N)B1OC2CC3CC(C3(C)C)C2(C)O1.Cl` (stereo not drawn) [Ac--(D)Phe--Pro--boroArg--C10 H16.HCl, Ac-(D)Phe-Pro-boroArg-C10 H16.HCl], the “Ki (suggested by inhibitor concentration and percent inhibition)” value on Human thrombin (estimate from percent inhibition) is “in the picomolar range”. At Human thrombin (inhibitor 5 nM), the inhibits thrombin is given as 99% and the “Percent Activity” value was 1%. Also, the “Percent Activity” value on Human plasma kallikrein (inhibitor 10 nM) was determined as 56%. “H-A]a-Phe-(D,L)boroLys-C6 H12.TFA.benzene sulfonic acid [H--Ala--Phe--D,L)boroLys--C6 H12.2HCl]”: the “Percent Activity” value at Human thrombin (inhibitor 10000 nM) is 89%. With `Br.CC(C)CC(NC(=O)CNC(=O)C(CC(C)C)NC(=O)OC(C)(C)C)C(=O)NC(C)C(=O)NC(CCCSC(=N)N)B1OC2CC3CC(C3(C)C)C2(C)O1` (stereo not drawn) [Boc-Leu-Gly-Leu-Ala-boroIrg-C10 H16.HBr] (Boc-LGLA-X2; configuration not given here), the “Percent Activity” value at Human thrombin (inhibitor 10 nM) turned out to be 66%. On to `CC(C)CC(NC(=O)CNC(=O)C(CC(C)C)NC(=O)OC(C)(C)C)C(=O)NC(C)C(=O)NC(CCCNC(=N)N)B1OC2CC3CC(C3(C)C)C2(C)O1.O=S(=O)(O)c1ccccc1` (stereo not drawn) [Boc-Leu-Gly-Leu-Ala-boroArg-C10 H16.benzene sulfonic acid] (Boc-LGLA-X1; configuration not given here), for which the “Percent Activity” value on Human thrombin (inhibitor 10 nM) worked out at 38%; on Human plasma kallikrein (inhibitor 10 nM) it was 30%. As to `CC(C)CC(N)C(=O)NCC(=O)NC(CC(C)C)C(=O)NC(C)C(=O)NC(CCCNC(=N)N)B1OC2CC3CC(C3(C)C)C2(C)O1.Cl.O=S(=O)(O)c1ccccc1` (stereo not drawn) [H-Leu-Gly-Leu-Ala-boroArg-C10 H16.HCl.benzene sulfonic acid] (H-LGLA-X1; configuration not given here), on Human thrombin (inhibitor 10 nM), the “Percent Activity” value is reported as 25%. For the compound `CC1(C)C2CC3OB(C(CCCNC(=N)N)NC(=O)CNC(=O)C(CCC(=O)O)NC(=O)c4ccccc4)OC3(C)C1C2.O=S(=O)(O)c1ccccc1` (stereo not drawn) [Bz--Glu--Gly--boroArg--C10 H16.BSA, Bz-Glu-Gly-boroArg-C10 H16.benzene sulfonic acid], the “Percent Activity” value at Human thrombin (inhibitor 100 nM) stood at 46%; on Human plasma kallikrein (inhibitor 50 nM), 39%. Regarding `CC(=O)NC(Cc1ccccc1)C(=O)NC(CCCCN)B1OC(C)(C)C(C)(C)O1.Cl` (stereo not shown) [Ac--Phe--boroLys--C6 H12.HCl, Ac-Phe-boroLys-C6 H12.benzene sulfonic acid], the “Percent Activity” value on Human thrombin (inhibitor 10000 nM) is given as 97%. Consider `CC(C)(C)OC(=O)NC(Cc1ccccc1)C(=O)NC(Cc1ccccc1)C(=O)NC(CCCN)B1OC2CC3CC(C3(C)C)C2(C)O1.O=S(=O)(O)c1ccccc1` (stereo not drawn) [Boc--(D)Phe--Phe--boroOrn--C10 H16.BSA, Boc-(D)Phe-Phe-boroOrn-C10 H16.benzene sulfonic acid], for which the “Percent Activity” value at Human plasma kallikrein (inhibitor 10000 nM) amounted to 39%.

Turning to `Br.CC1(C)C2CC3OB(C(CCCSC(=N)N)NC(=O)CNC(=O)C(CCC(=O)O)NC(=O)c4ccccc4)OC3(C)C1C2` (stereo not drawn) [Bz--Glu--Gly--boroIrg-- C10 H16.HBr, Bz-Glu-Gly-boroIrg-C10 H16.HBr], the “Percent Activity” value on Human thrombin (inhibitor 1000 nM) is reported as 39%.

Regarding `Br.CC1(C)C2CC3OB(C(CCCSC(=N)N)NC(=O)C4CCCN4C(=O)C(N)Cc4ccccc4)OC3(C)C1C2.Cl` (stereo not drawn) [H--(D)Phe--Pro--boroIrg--C10 H16.HBr.HCl, H-(D)Phe-Pro-boroIrg-C10 H16.HBr,HCl], the “Percent Activity” value on Human thrombin (inhibitor 5 nM) stood at 4%. As to `Br.CC1(C)C2CC3OB(C(CCCSC(=N)N)NC(=O)C(Cc4ccccc4)NC(=O)C4CCCN4C(=O)c4ccccc4)OC3(C)C1C2` (stereo not drawn) [Bz--Pro--Phe--boroIrg--C10 H16.HBr, Bz-Pro-Phe-boroIrg-C10 H16.HBr], the “Percent Activity” value at Human thrombin (inhibitor 1000 nM) is given as 21%.
